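All cell lines were grown in 96-well plates and treated with compound for 48 hours. TGI: concentration producing complete growth inhibition.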
Legend:
Experiment in all cases: NCI anticancer screen, dose series, 48 h
[1] = system: HL-60(TB) leukemia
[2] = system: SF-539 CNS
[3] = system: NCI-H522 lung
[4] = system: RPMI-8226 leukemia
[5] = system: TK-10 renal
[6] = system: DU-145 prostate
[7] = system: MDA-MB-435
[8] = system: EKVX NSCLC
[9] = system: OVCAR-8 ovarian
[10] = system: SNB-75 CNS
[11] = system: SK-MEL-2 melanoma
[12] = system: SW-620 colon
[13] = system: T-47D breast
[14] = system: NCI/ADR-RES ovarian
[15] = system: PC-3 prostate
[16] = system: A498 renal
[17] = system: NCI-H226 lung
[18] = system: SF-268 CNS

## CC(=O)Nc1ccc2c3c(cc(O)c2c1)N(C(=O)CCCC(=O)Nc1ccc2c4c(cc(O)c2c1)N(C(=O)OC(C)(C)C)CC4CCl)CC3CCl (centres undefined)
[1]
  TGI: 1.71 µM
[2]
  TGI: > 50 µM
[3]
  TGI: 3.85 µM
[4]
  TGI: > 34.8 µM
[5]
  TGI: 35 µM
[6]
  TGI: > 50 µM
[7]
  TGI: 2 µM
[8]
  TGI: > 35.3 µM
[9]
  TGI: > 50 µM
[10]
  TGI: 12.6 µM
[11]
  TGI: 1.84 µM
[12]
  TGI: > 50 µM
[13]
  TGI: 12.7 µM
[14]
  TGI: > 50 µM
[15]
  TGI: > 15.6 µM
[16]
  TGI: 2.63 µM

## CC(=O)OCc1cccc(O)c1C(=O)CCC=C(C)C
[1]
  TGI: > 100 µM
[2]
  TGI: > 100 µM
[3]
  TGI: 56.6 µM
[17]
  TGI: > 100 µM
[4]
  TGI: > 100 µM
[5]
  TGI: > 100 µM
[6]
  TGI: > 100 µM
[7]
  TGI: > 100 µM
[8]
  TGI: > 100 µM
[11]
  TGI: > 100 µM
[12]
  TGI: > 100 µM
[13]
  TGI: > 100 µM
[18]
  TGI: > 100 µM
[14]
  TGI: > 100 µM
[15]
  TGI: > 100 µM
[16]
  TGI: > 100 µM

## CC(C)(C)[Si](C)(C)OCC1OC(n2cc(F)c(=O)[nH]c2=O)CC1O[Si](C)(C)C(C)(C)C (centres undefined)
[1]
  TGI: 12.5 µM
[2]
  TGI: 30.7 µM
[3]
  TGI: 12.7 µM
[17]
  TGI: 42.9 µM
[4]
  TGI: 12.9 µM
[5]
  TGI: 13.9 µM
[6]
  TGI: 11.3 µM
[7]
  TGI: 26.5 µM
[8]
  TGI: 21.7 µM
[9]
  TGI: 35.7 µM
[10]
  TGI: 15.9 µM
[11]
  TGI: 29.7 µM
[12]
  TGI: 23.1 µM
[13]
  TGI: 12.7 µM
[18]
  TGI: 29.8 µM
[14]
  TGI: 35.6 µM
[15]
  TGI: 14.2 µM
[16]
  TGI: 21.1 µM

## CC(C)=CCC[C@](C)(O)[C@H]1CC[C@]2(C)[C@@H]1[C@H](O)C[C@@H]1[C@@]3(C)CC[C@H](O[C@@H]4O[C@H](CO)[C@@H](O)[C@H](O)[C@H]4O)C(C)(C)[C@@H]3CC[C@]12C
[1]
  TGI: 45.8 µM
[2]
  TGI: 38.8 µM
[3]
  TGI: 31.9 µM
[17]
  TGI: 34.6 µM
[4]
  TGI: 38.8 µM
[5]
  TGI: 39.6 µM
[6]
  TGI: 35.1 µM
[7]
  TGI: 36.1 µM
[8]
  TGI: 39.4 µM
[9]
  TGI: 33.6 µM
[10]
  TGI: 33.5 µM
[11]
  TGI: 29.7 µM
[12]
  TGI: 36.6 µM
[13]
  TGI: 34 µM
[18]
  TGI: 29.3 µM
[14]
  TGI: 55.1 µM
[15]
  TGI: 31.9 µM
[16]
  TGI: 35.4 µM

## COc1ccc(OC)c(C2CCCc3c2cnc2nc(N)nc(N)c32)c1 (centres undefined)
[1]
  TGI: > 100 µM
[2]
  TGI: > 100 µM
[3]
  TGI: > 100 µM
[17]
  TGI: > 100 µM
[4]
  TGI: > 100 µM
[5]
  TGI: > 100 µM
[6]
  TGI: > 100 µM
[7]
  TGI: > 100 µM
[8]
  TGI: > 100 µM
[9]
  TGI: > 100 µM
[10]
  TGI: 41 µM
[11]
  TGI: > 100 µM
[12]
  TGI: > 100 µM
[13]
  TGI: > 100 µM
[18]
  TGI: > 100 µM
[14]
  TGI: > 100 µM
[15]
  TGI: > 100 µM
[16]
  TGI: > 100 µM

## CC1(C)CC(=O)C(CC(C(=O)C(=O)Nc2cc(C(F)(F)F)ccc2Cl)C(=O)c2ccco2)C(=O)C1 (centres undefined)
[1]
  TGI: > 100 µM
[2]
  TGI: > 100 µM
[3]
  TGI: > 100 µM
[17]
  TGI: > 100 µM
[4]
  TGI: > 100 µM
[5]
  TGI: > 100 µM
[6]
  TGI: > 100 µM
[7]
  TGI: > 100 µM
[8]
  TGI: > 100 µM
[9]
  TGI: > 100 µM
[11]
  TGI: > 100 µM
[12]
  TGI: > 100 µM
[13]
  TGI: > 100 µM
[18]
  TGI: > 100 µM
[14]
  TGI: > 100 µM
[15]
  TGI: > 100 µM
[16]
  TGI: > 100 µM

## O=C(CC(=O)N(C(=O)c1ccccc1)c1ccc(Cl)cc1)N/N=C\c1ccccc1O
[1]
  TGI: > 100 µM
[2]
  TGI: > 100 µM
[3]
  TGI: > 100 µM
[17]
  TGI: > 100 µM
[4]
  TGI: > 100 µM
[5]
  TGI: > 100 µM
[6]
  TGI: > 100 µM
[7]
  TGI: > 100 µM
[8]
  TGI: > 100 µM
[9]
  TGI: > 100 µM
[10]
  TGI: 67.4 µM
[11]
  TGI: > 100 µM
[12]
  TGI: > 100 µM
[13]
  TGI: > 100 µM
[18]
  TGI: > 100 µM
[14]
  TGI: > 100 µM
[15]
  TGI: > 100 µM
[16]
  TGI: > 100 µM

## Oc1ccc2ccccc2c1-c1c(Nc2ccccc2)ccc2ccccc12
[1]
  TGI: 48.4 µM
[2]
  TGI: 29.7 µM
[3]
  TGI: 29.6 µM
[17]
  TGI: 36.1 µM
[4]
  TGI: 47.6 µM
[5]
  TGI: 32.1 µM
[6]
  TGI: 32.3 µM
[7]
  TGI: 20.2 µM
[8]
  TGI: 40 µM
[9]
  TGI: 33.8 µM
[10]
  TGI: 31.9 µM
[11]
  TGI: 36.3 µM
[12]
  TGI: 26.8 µM
[13]
  TGI: 39.5 µM
[18]
  TGI: 31.6 µM
[14]
  TGI: > 51.3 µM
[15]
  TGI: 36.8 µM
[16]
  TGI: 36.2 µM

## O=C(O)CN1CCNCCN(CC(=O)O)CCNCC1
[1]
  TGI: 15.2 µM
[2]
  TGI: > 100 µM
[3]
  TGI: > 100 µM
[17]
  TGI: > 100 µM
[4]
  TGI: > 100 µM
[5]
  TGI: > 100 µM
[6]
  TGI: > 100 µM
[7]
  TGI: > 100 µM
[8]
  TGI: > 100 µM
[9]
  TGI: > 100 µM
[10]
  TGI: 98.9 µM
[11]
  TGI: > 100 µM
[12]
  TGI: > 100 µM
[13]
  TGI: > 100 µM
[18]
  TGI: > 100 µM
[14]
  TGI: > 100 µM
[15]
  TGI: > 100 µM
[16]
  TGI: > 100 µM

## CC(Oc1ccccc1)C(=O)NN (centres undefined)
[1]
  TGI: > 100 µM
[2]
  TGI: > 100 µM
[3]
  TGI: > 100 µM
[17]
  TGI: > 100 µM
[4]
  TGI: > 100 µM
[5]
  TGI: > 100 µM
[6]
  TGI: > 100 µM
[7]
  TGI: > 100 µM
[8]
  TGI: > 100 µM
[9]
  TGI: > 100 µM
[10]
  TGI: > 100 µM
[11]
  TGI: > 100 µM
[12]
  TGI: > 100 µM
[13]
  TGI: > 100 µM
[18]
  TGI: > 100 µM
[14]
  TGI: > 100 µM
[15]
  TGI: > 100 µM
[16]
  TGI: > 100 µM

## CCN(CC)CCCC(C)NC(=O)c1cc(-c2nccn2C)nc2ccc(C)cc12 (centres undefined)
[1]
  TGI: > 100 µM
[2]
  TGI: > 100 µM
[17]
  TGI: > 100 µM
[4]
  TGI: > 100 µM
[5]
  TGI: > 100 µM
[6]
  TGI: > 100 µM
[7]
  TGI: > 100 µM
[8]
  TGI: > 100 µM
[9]
  TGI: > 100 µM
[10]
  TGI: > 100 µM
[11]
  TGI: > 100 µM
[12]
  TGI: > 100 µM
[13]
  TGI: > 100 µM
[18]
  TGI: > 100 µM
[14]
  TGI: > 100 µM
[15]
  TGI: > 100 µM
[16]
  TGI: > 100 µM

## CCCCCCc1cc2cc(C(=O)Nc3ccccc3F)c(=N)oc2cc1O
[1]
  TGI: 31.9 µM
[2]
  TGI: 39.3 µM
[3]
  TGI: 16.8 µM
[4]
  TGI: > 100 µM
[6]
  TGI: 25.2 µM
[7]
  TGI: 10.2 µM
[8]
  TGI: 32.3 µM
[9]
  TGI: 8.34 µM
[11]
  TGI: 26.8 µM
[12]
  TGI: > 100 µM
[13]
  TGI: 12.4 µM
[18]
  TGI: 59.9 µM
[14]
  TGI: 16.8 µM
[15]
  TGI: 26.8 µM
[16]
  TGI: 37.2 µM

## CC(C)(C)c1ccc(-c2nc3ccccc3c(=O)o2)cc1
[1]
  TGI: 48.8 µM
[2]
  TGI: > 100 µM
[3]
  TGI: 69.6 µM
[4]
  TGI: 93.3 µM
[5]
  TGI: > 100 µM
[6]
  TGI: > 100 µM
[7]
  TGI: > 100 µM
[8]
  TGI: > 100 µM
[9]
  TGI: > 100 µM
[10]
  TGI: 95.2 µM
[11]
  TGI: 66.6 µM
[12]
  TGI: > 100 µM
[13]
  TGI: > 100 µM
[18]
  TGI: > 100 µM
[14]
  TGI: > 100 µM
[15]
  TGI: > 100 µM
[16]
  TGI: > 100 µM

— PubChem BioAssay (NCI)
